Key:
[1] = Hepatic clearance in vitro CLint, dog liver microsomes; format: in vitro ADME
[2] = Permeability Caco-2 Papp and efflux ratio; format: in vitro ADME; details: human
mouse CT-26 cells = assay: Antitumor activity in CT26 subcutaneous tumor model in Balb/c mice; format: in vivo; details: day 13 vs vehicle
Procedure: Mice used were ˜ 6-8 week-old female Balb/c mice subcutaneously inoculated with 2×10^6 mouse CT-26 cells. […] The mice were divided into six treatment groups as follows: vehicle (qdx9) PO+IP, Compound 1 (10 mg/kg, qdx9)+an exemplary anti-mouse PD1 (CD279) antibody (BioXCell) (200 μg/mouse, q2dx4); Compound 1 (30 mg/kg, qdx9)+anti-PD1 antibody (200 μg/mouse, q2dx4), Compound 1 (100 mg/kg)+anti-PD1 antibody (200 μg/mouse, q2dx4), anti-PD1 antibody (200 μg/mouse, q2dx4), or preladenant (30 mg/kg, qdx9)+anti-PD1 antibody (200 μg/mouse, q2dx4). Compound 1 and preladenant were administered orally. The anti-PD1 antibody was administered IP. Body weight was measured daily. Tumor growth of the CT26 cells was monitored three times per week by measuring the tumor volume size using a caliper with the results shown in FIG. 5.

[3] = Plasma protein binding (PPB), human; format: in vitro ADME; details: read-out: Plasma protein binding (PPB) (fu)
[4] = Plasma pharmacokinetic parameters of Compound 1 in dogs; format: in vivo; details: dog
Excerpt: Pharmacokinetic parameters were further estimated in vivo after IV or PO administration of Compound 1 in mice and dogs with the results provided in Table 4 below.

[5] = Hepatic clearance in vitro CLint, mouse liver microsomes; format: in vitro ADME
[6] = Hepatic clearance in vitro CLint, rat liver microsomes; format: in vitro ADME
A3 receptor = biological target: T1, A3 receptor (Homo sapiens, UniProt P0DMS8); assay: Radioligand receptor binding assay, A3 receptor; details: cell membranes overexpressing A3 receptor, read-out: Potency Ki A3
T1 construct: purchased
T1 sequence (P0DMS8 1-318): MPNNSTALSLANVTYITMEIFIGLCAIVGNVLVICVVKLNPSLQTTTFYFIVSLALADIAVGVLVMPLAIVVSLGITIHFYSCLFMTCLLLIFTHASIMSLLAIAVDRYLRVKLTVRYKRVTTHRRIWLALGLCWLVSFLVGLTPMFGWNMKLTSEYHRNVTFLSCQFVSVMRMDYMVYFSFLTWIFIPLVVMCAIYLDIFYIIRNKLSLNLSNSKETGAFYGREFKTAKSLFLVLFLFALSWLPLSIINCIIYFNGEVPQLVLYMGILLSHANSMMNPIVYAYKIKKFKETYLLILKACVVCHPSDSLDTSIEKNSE
Procedure: Using conventional receptor binding assay techniques, Compounds 1-24 were assayed to determine binding activity at the A2A, A1, and A3 receptors with the results shown in Table 7.
Receptor binding affinity of Compounds 1-24 was measured using radioligand binding assays using commercially obtained cell membranes prepared from cell lines overexpressing the A2A, A1, or A3 receptors. Briefly, cell membrane preparations from cells expressing the specific receptor were mixed with the appropriate [^3H]-labeled tracer for the specific receptor and the test compound or a known inhibitor of receptor-ligand binding. Following 60 min incubation at room temperature to allow receptor-ligand complex formation, the complexes were collected by filtration, washed with 50 mM Tris HCl (pH 7.5) to remove radioligand that was not receptor-bound, and the remaining radioactivity determined by liquid scintillation counting. Specific radioligand binding was calculated for each test compound concentration and IC50 values were determined by non-linear, regression analysis. Inhibition constants (Ki) were calculated using the equation of Cheng and Prusoff using the observed IC50 of the tested compound, the concentration of radioligand employed in the assay and the experimentally determined values for the Kd of the ligand.

COCCOc1ccc(N2CCN(CCN(C)c3cc4nc(-c5ncco5)nn4c(N)n3)CC2)cc1 [Compound 1, N^7-(2-{4-[4-(2-methoxyethoxy)phenyl]piperazin-1-yl}ethyl)-N^7-methyl-2-(1,3-oxazol-2-yl)[1,2,4]triazolo[1,5-c]pyrimidine-5,7-diamine]
microsomal CLint [1]: < 1 µL/min/mg | Papp [2]: 14.5 ×10⁻⁶ cm/s | efflux ratio ([2]; read-out: Efflux Ratio (ER)): 1.6 | % TGI (mouse CT-26 cells; 10 mg/kg qdx9 PO + anti-PD1 antibody 200 μg/mouse q2dx4 IP): 34% | % TGI (mouse CT-26 cells; 30 mg/kg qdx9 PO + anti-PD1 antibody 200 μg/mouse q2dx4 IP): 41^1% | % TGI (mouse CT-26 cells; 100 mg/kg PO + anti-PD1 antibody 200 μg/mouse q2dx4 IP): 47^2% | fraction unbound [3]: 0.39 | F ([4]; PO 1&10 mg/kg vs IV 0.2 mg/kg): >100% | clearance ([4]; plasma, IV 0.2 mg/kg): 12 mL/min/kg | half-life ([4]; plasma, IV 0.2 mg/kg): 6 h | Vd ([4]; plasma, IV 0.2 mg/kg, read-out: Vss): 5.2 L/kg | AUC(0-inf) ([4]; plasma, PO 1 mg/kg): 2020 ng·h/mL | AUC(0-inf) ([4]; plasma, PO 10 mg/kg): 17900 ng·h/mL | microsomal CLint [5]: 29 µL/min/mg | microsomal CLint [6]: 17 µL/min/mg | Ki (A3 receptor): > 10 µM
